Measurements reported in PubChem BioAssay AID1963449 (Molecular Pharmacology Branch, DTP, NCI, 2024).

Test system: 596521-263-R-J1-PDC complex spheroid growth
Test: Anticancer human tumor 596521-263-R-J1-PDC patient-derived soft tissue sarcoma cell line growth inhibition [Asc]
Settings: for IC50: curve of first compound; for viability, T/C: stronger effect = lower value
Summary of the method: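 Spheroid model: tumor line + HUVEC + hMSC. Single agents and combinations; top conc. at/near clinical Cmax (10 microM if undetermined), half-log dilutions. DMSO stocks at 800-fold test concentration.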
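Also: spheroids exposed to compounds for 7 days.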

Structure (SMILES): Cn1ncnc1[C@H]1c2n[nH]c(=O)c3cc(F)cc(c23)N[C@@H]1c1ccc(F)cc1 + CNC(C)C(=O)NC1CN(S(=O)(=O)c2cccc(S(=O)(=O)N3CCC4CCC(C(=O)NC(c5ccccc5)c5ccccc5)N4C(=O)C(NC(=O)C(C)NC)C3)c2)CCC2CCC(C(=O)NC(c3ccccc3)c3ccccc3)N2C1=O
- IC50 (second compound 0.00316 µM): < 0.000316 µM
- IC50 (second compound 0.01 µM): > 0.1 µM
- IC50 (second compound 0.0316 µM): > 0.1 µM
- IC50 (second compound 0.1 µM): > 0.1 µM
- IC50 (second compound 0.316 µM): > 0.1 µM
- IC50 (second compound 1 µM): > 0.1 µM
- viability, T/C (second compound 0.00316 µM, first compound 0.000316 µM): 16.1%
- viability, T/C (second compound 0.00316 µM, first compound 0.001 µM): 16%
- viability, T/C (second compound 0.00316 µM, first compound 0.00316 µM): 15.3%
- viability, T/C (second compound 0.00316 µM, first compound 0.01 µM): 16.5%
- viability, T/C (second compound 0.00316 µM, first compound 0.0316 µM): 15.2%
- viability, T/C (second compound 0.00316 µM, first compound 0.1 µM): 15.6%
- viability, T/C (second compound 0.01 µM, first compound 0.000316 µM): 76%
- viability, T/C (second compound 0.01 µM, first compound 0.001 µM): 62.1%
- viability, T/C (second compound 0.01 µM, first compound 0.00316 µM): 63.8%
- viability, T/C (second compound 0.01 µM, first compound 0.01 µM): 64.2%
- viability, T/C (second compound 0.01 µM, first compound 0.0316 µM): 67.4%
- viability, T/C (second compound 0.01 µM, first compound 0.1 µM): 57.3%
- viability, T/C (second compound 0.0316 µM, first compound 0.000316 µM): 92.6%
- viability, T/C (second compound 0.0316 µM, first compound 0.001 µM): 75.9%
- viability, T/C (second compound 0.0316 µM, first compound 0.00316 µM): 73%
- viability, T/C (second compound 0.0316 µM, first compound 0.01 µM): 76.9%
- viability, T/C (second compound 0.0316 µM, first compound 0.0316 µM): 64.1%
- viability, T/C (second compound 0.0316 µM, first compound 0.1 µM): 64.7%
- viability, T/C (second compound 0.1 µM, first compound 0.000316 µM): 81.9%
- viability, T/C (second compound 0.1 µM, first compound 0.001 µM): 81%
- viability, T/C (second compound 0.1 µM, first compound 0.00316 µM): 79.9%
- viability, T/C (second compound 0.1 µM, first compound 0.01 µM): 71.1%
- viability, T/C (second compound 0.1 µM, first compound 0.0316 µM): 62.2%
- viability, T/C (second compound 0.1 µM, first compound 0.1 µM): 60.3%
- viability, T/C (second compound 0.316 µM, first compound 0.000316 µM): 83.3%
- viability, T/C (second compound 0.316 µM, first compound 0.001 µM): 74.7%
- viability, T/C (second compound 0.316 µM, first compound 0.00316 µM): 79.3%
- viability, T/C (second compound 0.316 µM, first compound 0.01 µM): 64%
- viability, T/C (second compound 0.316 µM, first compound 0.0316 µM): 65.1%
- viability, T/C (second compound 0.316 µM, first compound 0.1 µM): 60.6%
- viability, T/C (second compound 1 µM, first compound 0.000316 µM): 73.2%
- viability, T/C (second compound 1 µM, first compound 0.001 µM): 76.8%
- viability, T/C (second compound 1 µM, first compound 0.00316 µM): 71.5%
- viability, T/C (second compound 1 µM, first compound 0.01 µM): 77.3%
- viability, T/C (second compound 1 µM, first compound 0.0316 µM): 64.1%
- viability, T/C (second compound 1 µM, first compound 0.1 µM): 58.3%

Structure (SMILES): NC(=O)C(=Cn1cnc(-c2cc(C(F)(F)F)cc(C(F)(F)F)c2)n1)c1cncnc1 + CNC(C)C(=O)NC1CN(S(=O)(=O)c2cccc(S(=O)(=O)N3CCC4CCC(C(=O)NC(c5ccccc5)c5ccccc5)N4C(=O)C(NC(=O)C(C)NC)C3)c2)CCC2CCC(C(=O)NC(c3ccccc3)c3ccccc3)N2C1=O
- IC50 (second compound 0.00316 µM): 0.0204 µM
- IC50 (second compound 0.01 µM): 0.0256 µM
- IC50 (second compound 0.0316 µM): 0.0214 µM
- IC50 (second compound 0.1 µM): 0.0181 µM
- IC50 (second compound 0.316 µM): 0.0176 µM
- IC50 (second compound 1 µM): 0.0125 µM
- viability, T/C (second compound 0.00316 µM, first compound 0.000949 µM): 99.8%
- viability, T/C (second compound 0.00316 µM, first compound 0.003 µM): 94.3%
- viability, T/C (second compound 0.00316 µM, first compound 0.00949 µM): 67.1%
- viability, T/C (second compound 0.00316 µM, first compound 0.03 µM): 42.8%
- viability, T/C (second compound 0.00316 µM, first compound 0.0949 µM): 16.1%
- viability, T/C (second compound 0.00316 µM, first compound 0.3 µM): 10.4%
- viability, T/C (second compound 0.01 µM, first compound 0.000949 µM): 101%
- viability, T/C (second compound 0.01 µM, first compound 0.003 µM): 101%
- viability, T/C (second compound 0.01 µM, first compound 0.00949 µM): 84.3%
- viability, T/C (second compound 0.01 µM, first compound 0.03 µM): 44.9%
- viability, T/C (second compound 0.01 µM, first compound 0.0949 µM): 14.8%
- viability, T/C (second compound 0.01 µM, first compound 0.3 µM): 9.7%
- viability, T/C (second compound 0.0316 µM, first compound 0.000949 µM): 102%
- viability, T/C (second compound 0.0316 µM, first compound 0.003 µM): 93.7%
- viability, T/C (second compound 0.0316 µM, first compound 0.00949 µM): 75.8%
- viability, T/C (second compound 0.0316 µM, first compound 0.03 µM): 38.6%
- viability, T/C (second compound 0.0316 µM, first compound 0.0949 µM): 18.7%
- viability, T/C (second compound 0.0316 µM, first compound 0.3 µM): 10.5%
- viability, T/C (second compound 0.1 µM, first compound 0.000949 µM): 93.6%
- viability, T/C (second compound 0.1 µM, first compound 0.003 µM): 89.4%
- viability, T/C (second compound 0.1 µM, first compound 0.00949 µM): 67.5%
- viability, T/C (second compound 0.1 µM, first compound 0.03 µM): 35.6%
- viability, T/C (second compound 0.1 µM, first compound 0.0949 µM): 14.6%
- viability, T/C (second compound 0.1 µM, first compound 0.3 µM): 5.92%
- viability, T/C (second compound 0.316 µM, first compound 0.000949 µM): 95.3%
- viability, T/C (second compound 0.316 µM, first compound 0.003 µM): 76.8%
- viability, T/C (second compound 0.316 µM, first compound 0.00949 µM): 71.3%
- viability, T/C (second compound 0.316 µM, first compound 0.03 µM): 33.8%
- viability, T/C (second compound 0.316 µM, first compound 0.0949 µM): 14.4%
- viability, T/C (second compound 0.316 µM, first compound 0.3 µM): 6.61%
- viability, T/C (second compound 1 µM, first compound 0.000949 µM): 85.8%
- viability, T/C (second compound 1 µM, first compound 0.003 µM): 81.8%
- viability, T/C (second compound 1 µM, first compound 0.00949 µM): 56.1%
- viability, T/C (second compound 1 µM, first compound 0.03 µM): 27.3%
- viability, T/C (second compound 1 µM, first compound 0.0949 µM): 11.2%
- viability, T/C (second compound 1 µM, first compound 0.3 µM): 7.61%
